One block for each compound: values may come before it. Active and inactive are the calls of the source.
What was measured:
[1] = biological target: T1, Low molecular weight phosphotyrosine protein phosphatase (Homo sapiens, UniProt P24666); assay type: functional; settings: read-out: IC50_Mean;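 further: Dose-response confirmation assay measuring inhibition of LMPTP enzyme activity by fluorescence intensity read-out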
T1 sequence (P24666 whole entry): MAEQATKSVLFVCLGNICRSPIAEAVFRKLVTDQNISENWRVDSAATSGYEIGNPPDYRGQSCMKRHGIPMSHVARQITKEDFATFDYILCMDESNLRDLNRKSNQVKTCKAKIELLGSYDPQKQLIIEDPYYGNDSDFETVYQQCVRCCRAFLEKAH

[2] = biological target: Mitochondrial peptide methionine sulfoxide reductase (Bos taurus, UniProt P54149); assay type: functional;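 further: absorbance read-out, biochemical high-throughput dose-response screen for MsrA inhibitors, confirmatory; recombinant bovine MsrA coupled to E. coli TrxB with NADPH and selenocystamine; potency is for inhibitors of MsrA activity on DMSO substrate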
Sequence of Mitochondrial peptide methionine sulfoxide reductase (P54149 whole entry): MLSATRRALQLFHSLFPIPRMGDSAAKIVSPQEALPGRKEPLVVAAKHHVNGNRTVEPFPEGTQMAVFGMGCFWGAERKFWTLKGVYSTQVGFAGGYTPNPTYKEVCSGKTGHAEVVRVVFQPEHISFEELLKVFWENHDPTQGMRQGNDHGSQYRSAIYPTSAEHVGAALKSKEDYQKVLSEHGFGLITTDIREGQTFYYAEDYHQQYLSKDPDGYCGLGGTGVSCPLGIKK

Aminopeptidase N = biological target: T2, Aminopeptidase N (Plasmodium falciparum FcB1/Columbia, UniProt O96935); test: P. falciparum M1AAP inhibitors, biochemical, fluorogenic H-Leu-NHMec substrate, 1536-well (AID 1445); design: species or system Plasmodium falciparum 3D7, 3D7
T2 sequence (O96935 whole entry): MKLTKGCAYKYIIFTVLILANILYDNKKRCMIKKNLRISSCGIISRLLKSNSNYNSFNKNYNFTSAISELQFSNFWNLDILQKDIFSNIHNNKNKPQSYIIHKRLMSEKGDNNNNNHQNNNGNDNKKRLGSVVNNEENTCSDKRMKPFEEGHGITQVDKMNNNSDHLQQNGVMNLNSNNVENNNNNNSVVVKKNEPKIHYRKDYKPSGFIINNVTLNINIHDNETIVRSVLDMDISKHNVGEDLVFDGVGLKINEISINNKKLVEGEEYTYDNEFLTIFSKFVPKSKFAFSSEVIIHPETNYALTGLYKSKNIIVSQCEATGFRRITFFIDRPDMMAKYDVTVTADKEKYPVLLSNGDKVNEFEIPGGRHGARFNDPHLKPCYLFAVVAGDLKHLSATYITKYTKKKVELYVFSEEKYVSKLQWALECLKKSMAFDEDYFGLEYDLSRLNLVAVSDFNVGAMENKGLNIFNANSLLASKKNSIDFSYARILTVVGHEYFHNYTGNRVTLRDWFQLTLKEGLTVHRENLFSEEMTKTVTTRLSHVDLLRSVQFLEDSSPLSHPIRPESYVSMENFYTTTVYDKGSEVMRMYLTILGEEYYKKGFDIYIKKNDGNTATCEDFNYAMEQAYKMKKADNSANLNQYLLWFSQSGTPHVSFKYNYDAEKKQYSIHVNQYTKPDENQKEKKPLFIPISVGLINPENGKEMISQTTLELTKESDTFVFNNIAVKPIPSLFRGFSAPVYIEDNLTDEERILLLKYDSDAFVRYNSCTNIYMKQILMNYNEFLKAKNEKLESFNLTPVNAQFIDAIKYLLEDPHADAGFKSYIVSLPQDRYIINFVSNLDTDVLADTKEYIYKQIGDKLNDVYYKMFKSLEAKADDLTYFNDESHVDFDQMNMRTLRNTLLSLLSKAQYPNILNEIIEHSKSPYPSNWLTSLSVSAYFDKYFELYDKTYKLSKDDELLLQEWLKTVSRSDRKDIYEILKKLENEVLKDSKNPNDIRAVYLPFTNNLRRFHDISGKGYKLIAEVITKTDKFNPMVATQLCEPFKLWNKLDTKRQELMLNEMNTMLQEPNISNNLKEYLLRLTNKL

Caspase-6 = biological target: T3, Caspase-6 (Homo sapiens, UniProt P55212); test: human caspase-6 inhibitors, dose response, biochemical, VEID-R110 fluorescence, cherry-pick (AID 720632)
T3 sequence (P55212 whole entry): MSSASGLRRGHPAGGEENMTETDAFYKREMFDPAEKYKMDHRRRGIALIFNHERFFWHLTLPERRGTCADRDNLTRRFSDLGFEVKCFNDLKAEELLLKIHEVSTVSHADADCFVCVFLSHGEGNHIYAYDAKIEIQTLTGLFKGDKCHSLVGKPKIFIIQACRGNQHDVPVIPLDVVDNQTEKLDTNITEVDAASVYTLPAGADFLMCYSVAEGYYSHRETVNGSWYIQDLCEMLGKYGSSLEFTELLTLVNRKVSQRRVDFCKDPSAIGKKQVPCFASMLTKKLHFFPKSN

[3] = biological target: Tyrosine-protein phosphatase non-receptor type 11 (Homo sapiens, UniProt Q06124); test: SHP2 phosphatase inhibition, dose response, selectivity assay for STEP inhibitor project, biochemical (AID 602367); assay type: functional; settings: read-out: IC50_Mean
[4] = biological target: Tyrosine-protein phosphatase non-receptor type 5 (Homo sapiens, UniProt P54829); test: STEP phosphatase inhibitors, confirmation, biochemical, fluorescence intensity, uHTS hits (AID 602372); assay type: functional; settings: read-out: IC50_Mean
Sequence of Tyrosine-protein phosphatase non-receptor type 5 (P54829 whole entry): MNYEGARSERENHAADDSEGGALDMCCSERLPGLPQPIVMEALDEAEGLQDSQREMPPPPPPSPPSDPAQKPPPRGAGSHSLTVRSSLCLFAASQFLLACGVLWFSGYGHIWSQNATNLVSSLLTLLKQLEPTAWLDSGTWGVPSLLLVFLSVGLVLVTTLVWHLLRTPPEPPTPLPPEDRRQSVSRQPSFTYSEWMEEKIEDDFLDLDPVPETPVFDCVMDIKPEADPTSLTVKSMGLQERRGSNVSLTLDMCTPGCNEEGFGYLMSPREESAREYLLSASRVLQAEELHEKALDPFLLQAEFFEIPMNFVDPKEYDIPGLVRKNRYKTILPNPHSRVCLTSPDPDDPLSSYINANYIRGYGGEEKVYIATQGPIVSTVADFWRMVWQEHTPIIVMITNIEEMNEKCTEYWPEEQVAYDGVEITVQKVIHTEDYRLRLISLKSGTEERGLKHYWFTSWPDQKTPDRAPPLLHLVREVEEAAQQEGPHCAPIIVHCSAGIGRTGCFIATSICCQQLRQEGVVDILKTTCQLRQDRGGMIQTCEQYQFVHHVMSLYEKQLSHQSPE

[5] = biological target: Dual specificity protein phosphatase 3 (Homo sapiens, UniProt P51452); test: VHR phosphatase inhibition, dose response, selectivity assay for STEP inhibitor project, biochemical (AID 602374); assay type: functional; settings: read-out: IC50_Mean
Sequence of Dual specificity protein phosphatase 3 (P51452 whole entry): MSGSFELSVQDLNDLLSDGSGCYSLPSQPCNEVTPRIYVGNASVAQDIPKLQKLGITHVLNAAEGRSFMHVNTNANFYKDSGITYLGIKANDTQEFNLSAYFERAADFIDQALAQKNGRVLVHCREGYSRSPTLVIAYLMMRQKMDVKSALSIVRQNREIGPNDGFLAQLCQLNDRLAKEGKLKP

[6] = biological target: Potassium voltage-gated channel subfamily KQT member 2 (Rattus norvegicus, UniProt O88943); test: KCNQ2 potassium channel inhibitors, dose response, cell-based, automated electrophysiology, set II, rat KCNQ2 (AID 588637); assay type: functional
Sequence of Potassium voltage-gated channel subfamily KQT member 2 (O88943 whole entry): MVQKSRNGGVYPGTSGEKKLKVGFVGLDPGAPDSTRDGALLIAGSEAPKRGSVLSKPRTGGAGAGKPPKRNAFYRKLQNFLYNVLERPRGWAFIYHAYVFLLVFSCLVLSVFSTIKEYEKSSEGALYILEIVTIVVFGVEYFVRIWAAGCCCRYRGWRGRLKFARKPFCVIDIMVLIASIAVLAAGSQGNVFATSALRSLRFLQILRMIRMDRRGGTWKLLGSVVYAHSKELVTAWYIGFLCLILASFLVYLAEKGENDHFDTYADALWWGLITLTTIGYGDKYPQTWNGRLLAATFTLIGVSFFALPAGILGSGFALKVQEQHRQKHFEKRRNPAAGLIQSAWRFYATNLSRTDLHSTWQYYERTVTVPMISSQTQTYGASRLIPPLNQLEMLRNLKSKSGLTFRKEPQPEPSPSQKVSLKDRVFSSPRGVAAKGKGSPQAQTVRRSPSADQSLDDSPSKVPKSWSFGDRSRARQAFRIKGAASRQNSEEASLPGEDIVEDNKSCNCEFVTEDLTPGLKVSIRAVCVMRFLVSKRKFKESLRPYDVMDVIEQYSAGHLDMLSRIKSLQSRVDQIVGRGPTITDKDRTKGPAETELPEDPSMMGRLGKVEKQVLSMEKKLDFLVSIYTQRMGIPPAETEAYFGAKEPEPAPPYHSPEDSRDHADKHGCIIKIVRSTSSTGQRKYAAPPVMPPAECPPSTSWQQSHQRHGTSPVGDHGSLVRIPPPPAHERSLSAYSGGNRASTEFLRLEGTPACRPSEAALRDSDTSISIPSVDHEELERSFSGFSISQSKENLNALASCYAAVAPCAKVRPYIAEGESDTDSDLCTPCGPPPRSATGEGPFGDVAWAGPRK

[7] = biological target: T4, High affinity choline transporter 1 (Homo sapiens, UniProt Q9GZV3); test: inhibitors of CHT choline uptake, dose response, cell-based, 3H-choline uptake, CHT LV-AA trafficking mutant, CRC (AID 602208); assay type: functional
T4 sequence (Q9GZV3 whole entry): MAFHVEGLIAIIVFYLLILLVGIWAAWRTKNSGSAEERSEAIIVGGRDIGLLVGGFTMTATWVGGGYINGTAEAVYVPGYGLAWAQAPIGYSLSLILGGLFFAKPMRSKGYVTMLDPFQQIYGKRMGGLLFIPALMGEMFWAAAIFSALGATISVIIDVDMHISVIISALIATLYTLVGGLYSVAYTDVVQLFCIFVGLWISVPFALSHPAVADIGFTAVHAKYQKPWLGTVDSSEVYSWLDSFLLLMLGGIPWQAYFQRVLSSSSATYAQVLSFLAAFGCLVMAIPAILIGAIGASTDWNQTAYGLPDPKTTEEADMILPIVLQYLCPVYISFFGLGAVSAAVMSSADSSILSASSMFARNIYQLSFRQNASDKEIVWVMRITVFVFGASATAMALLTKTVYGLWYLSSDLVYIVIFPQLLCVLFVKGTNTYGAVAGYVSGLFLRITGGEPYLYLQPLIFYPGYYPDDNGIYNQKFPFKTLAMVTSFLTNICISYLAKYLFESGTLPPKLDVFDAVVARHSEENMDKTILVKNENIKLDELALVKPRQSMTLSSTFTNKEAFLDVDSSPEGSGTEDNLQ

[8] = biological target: T4, High affinity choline transporter 1; test: CHT inhibitors, dose response, cell-based, 10-point CRC, membrane potential dye (AID 588401); assay type: functional;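 further: membrane potential dye fluorescence of choline-evoked depolarization via CHT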
[9] = biological target: T4, High affinity choline transporter 1; test: CHT inhibitors, dose response, cell-based, 5-point CRC, membrane potential dye (AID 504840); assay type: functional
[10] = biological target: T5, Apoptotic protease-activating factor 1 (Homo sapiens, UniProt O14727); test: SAR analysis of small molecule Activators of Apaf-1 in a Fluorescent assay.; assay type: functional; settings: read-out: EC50_Mean;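 further: caspase-3 cleavage of fluorogenic Rh110 DEVD substrate downstream of apoptosome activation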
T5 sequence (O14727 whole entry): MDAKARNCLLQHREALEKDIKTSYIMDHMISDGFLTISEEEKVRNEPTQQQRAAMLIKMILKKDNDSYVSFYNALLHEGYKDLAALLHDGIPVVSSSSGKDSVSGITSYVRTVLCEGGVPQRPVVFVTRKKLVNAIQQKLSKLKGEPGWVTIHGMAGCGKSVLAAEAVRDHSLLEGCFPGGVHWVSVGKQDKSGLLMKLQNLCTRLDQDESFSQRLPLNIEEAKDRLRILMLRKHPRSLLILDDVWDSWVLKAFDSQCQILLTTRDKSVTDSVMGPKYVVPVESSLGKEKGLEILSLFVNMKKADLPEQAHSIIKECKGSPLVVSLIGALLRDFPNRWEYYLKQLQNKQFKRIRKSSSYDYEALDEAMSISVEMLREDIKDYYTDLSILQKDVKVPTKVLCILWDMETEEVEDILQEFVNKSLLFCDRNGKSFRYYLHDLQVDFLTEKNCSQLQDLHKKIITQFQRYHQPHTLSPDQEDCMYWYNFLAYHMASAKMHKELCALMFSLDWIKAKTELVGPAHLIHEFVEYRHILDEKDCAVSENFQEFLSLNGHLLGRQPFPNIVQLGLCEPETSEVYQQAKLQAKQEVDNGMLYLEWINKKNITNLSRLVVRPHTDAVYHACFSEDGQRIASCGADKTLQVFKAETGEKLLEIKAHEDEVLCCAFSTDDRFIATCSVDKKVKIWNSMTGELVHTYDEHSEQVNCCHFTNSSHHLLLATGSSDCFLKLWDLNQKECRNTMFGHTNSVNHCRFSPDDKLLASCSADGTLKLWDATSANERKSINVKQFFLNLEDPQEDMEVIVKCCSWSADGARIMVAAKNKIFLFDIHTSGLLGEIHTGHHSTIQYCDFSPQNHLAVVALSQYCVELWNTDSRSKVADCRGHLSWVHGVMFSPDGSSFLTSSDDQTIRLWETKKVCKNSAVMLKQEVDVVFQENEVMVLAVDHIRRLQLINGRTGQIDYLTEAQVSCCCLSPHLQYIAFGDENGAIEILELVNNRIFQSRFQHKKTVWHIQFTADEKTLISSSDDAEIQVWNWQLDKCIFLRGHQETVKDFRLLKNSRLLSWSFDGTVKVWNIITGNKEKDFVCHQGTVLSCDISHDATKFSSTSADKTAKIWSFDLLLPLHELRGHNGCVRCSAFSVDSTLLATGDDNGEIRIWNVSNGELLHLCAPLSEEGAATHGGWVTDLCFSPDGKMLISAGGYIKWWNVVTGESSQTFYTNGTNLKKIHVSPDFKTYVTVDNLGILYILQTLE

Melanocortin receptor 4 = Melanocortin receptor 4 (Homo sapiens, UniProt P32245); assay type: functional, cell-based;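 further: Cell-based assay with luminescence read-out, confirmatory dose-response testing for agonist activity of biased ligands at MC4R; human U2OS cells with tagged receptor and beta-arrestin; potency of agonists that increase receptor coupling to beta-arrestin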
Sequence of Melanocortin receptor 4 (P32245 whole entry): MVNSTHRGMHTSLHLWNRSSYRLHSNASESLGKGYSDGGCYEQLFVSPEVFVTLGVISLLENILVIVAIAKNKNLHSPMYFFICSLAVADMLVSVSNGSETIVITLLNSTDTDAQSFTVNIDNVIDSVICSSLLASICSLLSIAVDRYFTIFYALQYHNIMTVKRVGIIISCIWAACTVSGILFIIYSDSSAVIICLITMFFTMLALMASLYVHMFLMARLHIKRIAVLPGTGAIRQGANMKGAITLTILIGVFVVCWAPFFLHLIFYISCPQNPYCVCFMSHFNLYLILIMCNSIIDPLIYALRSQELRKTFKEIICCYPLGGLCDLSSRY

IC50 [1]: 80 µM (inactive)
Structure (SMILES): CCc1ccc(C=C2SC(=S)N(CCCC(=O)Nc3ccc(C(=O)O)cc3)C2=O)cc1

IC50 [2]: 122 µM (inactive)
IC50 (Aminopeptidase N): 90.7 µM (active)
Structure (SMILES): O=C(O)c1cc(-c2ccc(/C=N/N3C(=O)C4C5C=CC(C6CC56)C4C3=O)o2)ccc1Cl (stereo not drawn)

AC50 (Caspase-6): 2.58 µM (active)
IC50 [3]: 3.01 µM (active)
IC50 [4]: 14.2 µM (active)
IC50 [5]: 4.92 µM (active)
Structure (SMILES): O=C(Nc1cccc2c(=O)[nH][nH]c(=O)c12)c1ccc([N+](=O)[O-])cc1

IC50 [6]: 12 µM (active)
Structure (SMILES): CC1=C(C(=O)NC(C)c2ccc3c(c2)OCCO3)C2(CCC(C)CC2)OC1=O (stereo not drawn)

Structure (SMILES): CC1CCC(NC(=O)c2cccc(S(=O)(=O)N3CCN(C)CC3)c2)CC1 (stereo not drawn)
IC50 [7]: 4.68 µM (active)
IC50 [8]: 2.05 µM (active)
IC50 [9]: 4.17 µM (active)

EC50 [10]: > 100 µM (inactive)
Structure (SMILES): O=C(O)c1cc(-c2cc(F)c(F)cc2F)[nH]n1

EC50 (Melanocortin receptor 4): > 89.2 µM (inactive)
Structure (SMILES): COc1ccc(-c2cnc3c(NC(C)=O)cc(-c4ccccc4OC)cn23)cc1OC

— ChEMBL document CHEMBL1201862, “PubChem BioAssay data set” (2004)
